For the assay, the target named is PI3Kδ (p110δ/p85α) (Homo sapiens (Human), UniProt O00329). Kind of assay: Example A3: PI3Kδ scintillation proximity assay. The assay is classed as biochemical. As to conditions: scintillation proximity assay, 20 μM ATP, 4 nM PI3Kδ; read-out: PI3Kδ SPA IC50. The gist of the method:
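p110δ/p85α (4 nM) phosphorylated 20 μM PIP2 with 20 μM ATP plus [γ-33P]ATP in MOPS pH 6.7, MgCl2, DTT, CHAPS, 0.5% DMSO, at RT. Stopped with EDTA/excess ATP, product captured on WGA SPA beads overnight and counted; IC50 from percent control activity versus log inhibitor.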
A general note: Scintillation proximity formats need no separation of bound from free tracer.

Where a name gives a salt, the structure may show the parent alone.

Chain of PI3Kδ (p110δ/p85α) (O00329 whole entry): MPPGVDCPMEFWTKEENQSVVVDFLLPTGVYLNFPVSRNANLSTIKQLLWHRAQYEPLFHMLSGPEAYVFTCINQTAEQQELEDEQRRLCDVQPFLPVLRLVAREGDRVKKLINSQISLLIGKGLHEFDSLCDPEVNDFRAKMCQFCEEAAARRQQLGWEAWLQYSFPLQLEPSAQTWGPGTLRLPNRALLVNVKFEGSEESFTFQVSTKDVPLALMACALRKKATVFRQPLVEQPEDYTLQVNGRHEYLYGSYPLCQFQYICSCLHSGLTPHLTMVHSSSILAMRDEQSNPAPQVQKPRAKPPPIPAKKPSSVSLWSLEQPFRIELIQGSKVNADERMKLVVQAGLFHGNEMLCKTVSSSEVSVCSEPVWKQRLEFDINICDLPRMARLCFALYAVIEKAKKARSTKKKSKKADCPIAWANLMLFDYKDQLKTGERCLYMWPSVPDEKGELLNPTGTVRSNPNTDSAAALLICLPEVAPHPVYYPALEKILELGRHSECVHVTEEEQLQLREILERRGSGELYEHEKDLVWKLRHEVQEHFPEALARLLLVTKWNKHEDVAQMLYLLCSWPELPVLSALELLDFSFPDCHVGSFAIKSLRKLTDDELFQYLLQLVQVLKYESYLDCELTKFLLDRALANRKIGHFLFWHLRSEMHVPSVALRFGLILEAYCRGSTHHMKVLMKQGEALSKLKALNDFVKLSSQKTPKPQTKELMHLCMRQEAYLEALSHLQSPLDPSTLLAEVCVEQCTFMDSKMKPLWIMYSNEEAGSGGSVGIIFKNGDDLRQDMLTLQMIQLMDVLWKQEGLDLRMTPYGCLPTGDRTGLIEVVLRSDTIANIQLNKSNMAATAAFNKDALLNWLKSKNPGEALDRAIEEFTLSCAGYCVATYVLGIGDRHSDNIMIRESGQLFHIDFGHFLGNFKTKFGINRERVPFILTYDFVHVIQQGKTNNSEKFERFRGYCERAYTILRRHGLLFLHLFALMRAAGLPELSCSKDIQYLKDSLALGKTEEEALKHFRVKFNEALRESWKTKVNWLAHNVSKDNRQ
Chain of PI3Kδ (p110δ/p85α) (P27986 whole entry partner): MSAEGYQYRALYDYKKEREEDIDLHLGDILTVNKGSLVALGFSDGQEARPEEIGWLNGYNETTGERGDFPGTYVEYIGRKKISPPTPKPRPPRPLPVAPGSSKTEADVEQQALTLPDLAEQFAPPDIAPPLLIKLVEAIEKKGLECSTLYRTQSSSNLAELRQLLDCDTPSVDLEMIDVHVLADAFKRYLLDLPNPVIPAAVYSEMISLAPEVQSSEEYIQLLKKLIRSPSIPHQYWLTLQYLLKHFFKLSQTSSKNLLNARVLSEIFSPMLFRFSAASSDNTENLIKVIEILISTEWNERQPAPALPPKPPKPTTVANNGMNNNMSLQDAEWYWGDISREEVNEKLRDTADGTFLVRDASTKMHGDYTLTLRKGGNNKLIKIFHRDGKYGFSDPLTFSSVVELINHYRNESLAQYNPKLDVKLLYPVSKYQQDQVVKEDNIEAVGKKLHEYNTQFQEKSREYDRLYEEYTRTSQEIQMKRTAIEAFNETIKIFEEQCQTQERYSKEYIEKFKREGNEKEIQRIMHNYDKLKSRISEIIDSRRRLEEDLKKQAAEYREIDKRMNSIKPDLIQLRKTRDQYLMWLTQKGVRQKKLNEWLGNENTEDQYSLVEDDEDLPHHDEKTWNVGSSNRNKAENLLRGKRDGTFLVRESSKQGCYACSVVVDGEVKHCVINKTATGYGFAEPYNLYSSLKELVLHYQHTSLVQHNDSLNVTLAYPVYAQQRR

Turning to `COc1c(C(C)n2nc(C)c3c(N)ncnc32)cc(Cl)c(C#N)c1C1CNC1` (single isomer, unassigned) [Example 261, 4-[1-(4-Amino-3-methyl-1H-pyrazolo[3,4-d]pyrimidin-1-yl)ethyl]-2-azetidin-3-yl-6-chloro-3-methoxybenzonitrile], the IC50 (usually the concentration that inhibits the measured activity by half) was less than 10 nM.
Then `CCOc1c(C(C)n2nc(C)c3c(N)ncnc32)cc(Cl)c(C)c1C1CN(C(C)C)C1` (stereo not drawn) [Example 94, 1-{1-[5-Chloro-2-ethoxy-3-(1-isopropylazetidin-3-yl)-4-methylphenyl]ethyl}-3-methyl-1H-pyrazolo[3,4-d]pyrimidin-4-amine bis(trifluoroacetate)], with less than 10 nM.
Then `CCOc1c(C(C)n2ccc(=O)c3c(N)ncnc32)cc(Cl)c(C#N)c1-c1ccc(C(=O)N(C)C)nc1` (racemic) [Example 45, 5-{3-[1-(4-amino-5-oxopyrido[2,3-d]pyrimidin-8(5H)-yl)ethyl]-5-chloro-6-cyano-2-ethoxyphenyl}-N,N-dimethylpyridine-2-carboxamide], with less than 10 nM.
Then `COc1c(C(C)n2nc(C)c3c(N)ncnc32)cc(Cl)c(C#N)c1C1CN(C2CCOC2)C1` (single isomer, unassigned) [Example 276, 4-[1-(4-Amino-3-methyl-1H-pyrazolo[3,4-d]pyrimidin-1-yl)ethyl]-6-chloro-3-methoxy-2-[1-(tetrahydrofuran-3-yl)azetidin-3-yl]benzonitrile], with less than 10 nM.
Take `CCOc1c(C(C)n2nc(C)c3c(N)ncnc32)cc(Cl)c(C#N)c1C1CN(S(=O)(=O)CC)C1` (single isomer, unassigned) [Example 249, 4-[1-(4-Amino-3-methyl-1H-pyrazolo[3,4-d]pyrimidin-1-yl)ethyl]-6-chloro-3-ethoxy-2-[1-(ethylsulfonyl)azetidin-3-yl]benzonitrile]: the 50% inhibitory concentration (IC50) was less than 10 nM.
Then `CCNC(=O)c1c(C)c(Cl)cc(C(C)n2nc(-c3ccc4oc(N)nc4c3)c3c(N)ncnc32)c1OCC` (racemic) [Example 89, 3-(1-(4-Amino-3-(2-aminobenzo[d]oxazol-5-yl)-1H-pyrazolo[3,4-d]pyrimidin-1-yl)ethyl)-5-chloro-2-ethoxy-N-ethyl-6-methylbenzamide], with less than 10 nM; and `COc1c(C(C)n2nc(C)c3c(N)ncnc32)cc(Cl)c(C)c1C1CN(C2CCOCC2)C1` (racemic) [Example 64, 1-(1-{5-chloro-2-methoxy-4-methyl-3-[1-(tetrahydro-2H-pyran-4-yl)azetidin-3-yl]phenyl}ethyl)-3-methyl-1H-pyrazolo[3,4-d]pyrimidin-4-amine], with less than 10 nM.
Then `CCOc1c(C(C)n2nc(C)c3c(N)ncnc32)cc(Cl)c(C#N)c1-c1ccc(-c2nnc(C)o2)nc1` (racemic) [Example 338, 4-[1-(4-amino-3-methyl-1H-pyrazolo[3,4-d]pyrimidin-1-yl)ethyl]-6-chloro-3-ethoxy-2-[6-(5-methyl-1,3,4-oxadiazol-2-yl)pyridin-3-yl]benzonitrile], with less than 10 nM.
Then `COc1c(C(C)n2nc(C)c3c(N)ncnc32)cc(Cl)c(C)c1C1CN(CC(F)(F)F)C1` (single isomer, unassigned) [Example 108, 1-(1-{5-Chloro-2-methoxy-4-methyl-3-[1-(2,2,2-trifluoroethyl)azetidin-3-yl]phenyl}ethyl)-3-methyl-1H-pyrazolo[3,4-d]pyrimidin-4-amine], with less than 10 nM.
With `CNC(=O)N1CC(c2c(C)c(Cl)cc(C(C)n3nc(C)c4c(N)ncnc43)c2OC)C1` (racemic) [Example 10, 3-{3-[1-(4-Amino-3-methyl-1H-pyrazolo[3,4-d]pyrimidin-1-yl)ethyl]-5-chloro-2-methoxy-6-methylphenyl}-N-methylazetidine-1-carboxamide], the IC50 is less than 10 nM.
Then `COc1c(C(C)n2nc(C(F)F)c3c(N)ncnc32)cc(C#N)c(C)c1C1CN(CC(C)(C)O)C1` (racemic) [Example 133, 5-{1-[4-Amino-3-(difluoromethyl)-1H-pyrazolo[3,4-d]pyrimidin-1-yl]ethyl}-3-[1-(2-hydroxy-2-methylpropyl)azetidin-3-yl]-4-methoxy-2-methylbenzonitrile], with less than 10 nM; and `COc1c(C(C)n2nc(C)c3c(N)ncnc32)cc(Cl)c(C)c1C1CNC(=O)O1` (stereo not drawn) [Example 325, 5-{3-[1-(4-Amino-3-methyl-1H-pyrazolo[3,4-d]pyrimidin-1-yl)ethyl]-5-chloro-2-methoxy-6-methylphenyl}-1,3-oxazolidin-2-one], with less than 10 nM; and `CCOc1c(C(C)n2nc(C)c3c(N)ncnc32)cc(Cl)c(C#N)c1C1CN(C(C)(C)C(N)=O)C1` (single isomer, unassigned) [Example 239, 2-(3-{3-[1-(4-Amino-3-methyl-1H-pyrazolo[3,4-d]pyrimidin-1-yl)ethyl]-5-chloro-6-cyano-2-ethoxyphenyl}azetidin-1-yl)-2-methylpropanamide], with less than 10 nM.
Then `COc1c(C(C)n2nc(C)c3c(N)ncnc32)cc(Cl)c(F)c1C1CN(C)C1` (stereo not drawn) [Example 72], with less than 10 nM; and `COc1c(C(C)n2nc(C)c3c(N)ncnc32)cc(Cl)c(C#N)c1C1CN(C(=O)NC(C)(C)C)C1` (single isomer, unassigned) [Example 292, 3-{3-[1-(4-Amino-3-methyl-1H-pyrazolo[3,4-d]pyrimidin-1-yl)ethyl]-5-chloro-6-cyano-2-methoxyphenyl}-N-(tert-butyl)azetidine-1-carboxamide], with less than 10 nM.
Then `COc1c(C(C)n2cc(C)c3c(N)ncnc32)cc(Cl)c(C)c1-c1ccc(C(=O)N(C)C)nc1` (racemic) [Example 42, 5-{3-[1-(4-Amino-5-methyl-7H-pyrrolo[2,3-d]pyrimidin-7-yl)ethyl]-5-chloro-2-methoxy-6-methylphenyl}-N,N-dimethylpyridine-2-carboxamide], with less than 10 nM; and `CCOc1c(C(C)n2nc(C)c3c(N)ncnc32)cc(Cl)c(C)c1C1CN(CC(C)(C)O)C1` (single isomer, unassigned) [Example 98, 1-(3-{3-[1-(4-Amino-3-methyl-1H-pyrazolo[3,4-d]pyrimidin-1-yl)ethyl]-5-chloro-2-ethoxy-6-methylphenyl}azetidin-1-yl)-2-methylpropan-2-ol], with less than 10 nM.
Consider `CCOc1c(C(C)n2nc(C)c3c(N)ncnc32)cc(Cl)c(C)c1-c1ccc(C(=O)N(C)C)nc1` (stereo not drawn) [Example 14, 5-{3-[1-(4-Amino-3-methyl-1H-pyrazolo[3,4-d]pyrimidin-1-yl)ethyl]-5-chloro-2-ethoxy-6-methylphenyl}-N,N-dimethylpyridine-2-carboxamide bis(trifluoroacetate)], for which the IC50 was less than 10 nM.
Then `CCOc1c(C(C)n2nc(C)c3c(N)ncnc32)cc(Cl)c(F)c1C1CN(CC(F)F)C1` (racemic) [Example 147, 1-(1-{5-Chloro-3-[1-(2,2-difluoroethyl)azetidin-3-yl]-2-ethoxy-4-fluorophenyl}ethyl)-3-methyl-1H-pyrazolo[3,4-d]pyrimidin-4-amine], with less than 10 nM; and `CCOc1c(C(C)n2cc(C)c3c(N)ncnc32)cc(Cl)c(C#N)c1C1CN(C(C)C)C1` (stereo not drawn) [Example 307, 4-[1-(4-Amino-5-methyl-7H-pyrrolo[2,3-d]pyrimidin-7-yl)ethyl]-6-chloro-3-ethoxy-2-(1-isopropylazetidin-3-yl)benzonitrile], with less than 10 nM.
Then `CCOc1c(C(C)n2nc(C)c3c(N)ncnc32)cc(Cl)c(F)c1C1CN(CC(F)(F)F)C1` (racemic) [Example 141, 1-(1-{5-Chloro-2-ethoxy-4-fluoro-3-[1-(2,2,2-trifluoroethyl)azetidin-3-yl]phenyl}ethyl)-3-methyl-1H-pyrazolo[3,4-d]pyrimidin-4-amine], with less than 10 nM.
Then `COc1c(C(C)n2nc(C)c3c(N)ncnc32)cc(Cl)c(C)c1-c1ccnc(C(=O)N(C)C)c1` (stereo not drawn) [Example 16, 4-{3-[1-(4-Amino-3-methyl-1H-pyrazolo[3,4-d]pyrimidin-1-yl)ethyl]-5-chloro-2-methoxy-6-methylphenyl}-N,N-dimethylpyridine-2-carboxamide], with less than 10 nM.
In the case of `CNC(=O)[C@@H](C)N1CC(c2c(C)c(Cl)cc(C(C)n3nc(C)c4c(N)ncnc43)c2OC)C1` (stereo partly drawn) [Example 110, (2R)-2-(3-{3-[1-(4-Amino-3-methyl-1H-pyrazolo[3,4-d]pyrimidin-1-yl)ethyl]-5-chloro-2-methoxy-6-methylphenyl}azetidin-1-yl)-N-methylpropanamide trifluoroacetate], the concentration for half-maximal inhibition (IC50) is less than 10 nM.
Then `CCOc1c(C(C)n2nc(C)c3c(N)ncnc32)cc(Cl)c(C#N)c1N1CCCC1` (racemic) [Example 318, 4-[1-(4-amino-3-methyl-1H-pyrazolo[3,4-d]pyrimidin-1-yl)ethyl]-6-chloro-3-ethoxy-2-pyrrolidin-1-ylbenzonitrile], with less than 10 nM.
Then `COc1c(C(C)n2nc(C)c3c(N)ncnc32)cc(Cl)c(C)c1-c1cnn(C(C)C(=O)N(C)C)c1` (stereo not drawn) [Example 207, 2-(4-(3-(1-(4-amino-3-methyl-1H-pyrazolo[3,4-d]pyrimidin-1-yl)ethyl)-5-chloro-2-methoxy-6-methylphenyl)-1H-pyrazol-1-yl)-N,N-dimethylpropanamide], with less than 10 nM.
Then `CCOc1c(C(C)n2nc(-c3cncc(C#N)c3)c3c(N)ncnc32)cc(Cl)c(C)c1-c1ccc(C(=O)N(C)C)nc1` (stereo not drawn) [Example 57, 5-(3-{1-[4-amino-3-(5-cyanopyridin-3-yl)-1H-pyrazolo[3,4-d]pyrimidin-1-yl]ethyl}-5-chloro-2-ethoxy-6-methylphenyl)-N,N-dimethylpyridine-2-carboxamide tris(trifluoroacetate)], with less than 10 nM; and `CCOc1c(C(C)n2cc(C)c3c(N)ncnc32)cc(Cl)c(C#N)c1C1CN(CCO)C1` (stereo not drawn) [Example 308, 4-[1-(4-Amino-5-methyl-7H-pyrrolo[2,3-d]pyrimidin-7-yl)ethyl]-6-chloro-3-ethoxy-2-[1-(2-hydroxyethyl)azetidin-3-yl]benzonitrile], with less than 10 nM.

The values are drawn from patent US10092570B2 (Incyte Corporation, priority 2011, dated 2018).
